The numbers were not newly measured in US7368472B2, “1,2,4-Triaminobenzene derivatives useful for treating disorders of the central nervous system” (priority 2002, dated 2008), which cites them from elsewhere.

In series [1] the test system is electrically induced seizures, seizures induced chemically by pentylenetetrazole, picrotoxin and NMDA, DBA/2 mouse. To be noted: oral and intraperitoneal administration, rats and mice.
In series [2] the test system is amygdala kindling model of complex partial seizures. To be noted: in vivo.
Series [3] concerns incidence of seizures in epileptic patients.
For series [4], the system named is K(+) current in neuronal cells.
Series [5] has as its system kainic acid-induced status epilepticus. To be noted: rat.
The subject of the next series is hippocampal kindling. Particulars: rat.
Series [6] deals with animal models of anxiety-like behaviour. Particulars: in vivo.

Take `CCOC(=O)Nc1ccc(NCc2ccc(F)cc2)cc1N` [Retigabine, N-(2-amino-4-(4-fluorobenzylamino)-phenyl) carbamic acid ethyl ester]: the “activity in anticonvulsant tests” value in series [1] was “active”. The “activity in amygdala kindling model” value in series [2] is recorded as “active”. For the same compound, in series [3], the “reduction of seizure incidence in clinical trials” value is “effectiveness in reducing the incidence of seizures”. Besides, the “activation of K(+) current” value in series [4] is reported as “activate a K(+) current”. Besides, the “neuroprotection after status epilepticus” value in series [5] was “prevent limbic neurodegeneration and the expression of markers of apoptosis”. Besides, the “progression of hippocampal kindling” value in the series on hippocampal kindling was “delay the progression of hippocampal kindling”. Moreover, the “activity in models of anxiety-like behaviour” value in series [6] is listed as “active”.
